Laboratory results: publication PMC7365463, “Oxfendazole mediates macrofilaricidal efficacy against the filarial nematode Litomosoides sigmodontis in vivo and inhibits Onchocerca spec. motility in vitro” (PLoS Neglected Tropical Diseases, 2020)
Like-named read-outs stand apart in the source and are kept apart here.

Experiments:
[1] = test system: Onchocerca gutturosa adult male worms; assay: O. gutturosa adult male worm 5-day motility assay
[2] = test system: Onchocerca gutturosa adult male worms; assay: O. gutturosa adult worm MTT/formazan viability assay; conditions: 120 h
[3] = test system: Onchocerca lienalis microfilariae; assay: O. lienalis microfilariae 5-day motility assay; conditions: 120 h
[4] = test system: Litomosoides sigmodontis adult worms; assay: L. sigmodontis-infected mice, adult worm burden; assay type: in vivo
Protocol: (Whatman 903 Protein […], Sigma-Aldrich, Germany). […] Mice were sacrificed at 75-78 dpi. […] The mice were anesthetized then sacrificed by bleeding (at MNHN) or by an overdose of isoflurane (at IMMIP). At the MNHN, the pleural cavity was washed 10 times with 1 ml of cold phosphate buffered saline (PBS) to collect filariae as previously described. At the IMMIP, the pleural cavity was washed with 1 ml of PBS. In both laboratories the remaining worms were isolated using forceps. The recovered L. sigmodontis adult worms were counted and analyzed by light microscopy to identify males and females.

[5] = human
[6] = parameters: method as in PMID 1687815; conditions: rat/sheep/cattle, published data; cited from earlier work
[7] = parameters: method as in PMID 30745383; conditions: daily doses up to 60 mg/kg; cited from earlier work
[8] = test system: mouse lymphoma assay; parameters: method as in earlier work; conditions: in vitro; cited from earlier work
[9] = parameters: method as in earlier work; conditions: in vivo, lack of potential for aneuploidy; cited from earlier work
[10] = test system: mammalian tubulin; parameters: method as in PMID 6712717, PMID 1554382; conditions: cited from earlier work
[11] = parameters: method as in earlier work; conditions: dogs; cited from earlier work
[12] = test system: Onchocerca lupi; parameters: method as in PMID 29377880; conditions: Onchocerca lupi-infected dogs; cited from earlier work
[13] = test system: Brugia pahangi; conditions: jirds, necropsy 5 weeks p.t., ref Surin 1990 (Ref. 11), cited from earlier work
[14] = test system: Litomosoides sigmodontis; parameters: method as in Reddy 1983 (Ref. 15); conditions: L3 (mite), Mastomys natalensis, patent phase, necropsy 43 days p.t., ref Reddy 1983 (Ref. 15), cited from earlier work
[15] = test system: Brugia pahangi; parameters: method as in Reddy 1983 (Ref. 15); conditions: L3 (SC), Mastomys natalensis, patent phase, necropsy 43 days p.t., ref Reddy 1983 (Ref. 15), cited from earlier work
[16] = rats; cited from earlier work
[17] = test system: Litomosoides sigmodontis; assay: Patent L. sigmodontis infection in jirds (adult worms, microfilaremia, embryogenesis); conditions: for jirds with few microfilariae in the peripheral blood: between weeks 14 and 16 after treatment
[18] = mice, PO 2 x 2.5 mg/kg for 1 day, start 33 dpi, 75 dpi
[19] = mice, PO 2 x 2.5 mg/kg for 5 days, start 33 dpi, 75 dpi
[20] = mice, PO 2 x 2.5 mg/kg for 10 days, start 33 dpi, 75 dpi
[21] = mice, PO BID 2 x 1 mg/kg for 5 days from 35 dpi, necropsy 75 dpi
[22] = mice, PO BID 2 x 5 mg/kg for 5 days from 35 dpi, necropsy 75 dpi

For COC(=O)Nc1nc2ccc([S+]([O-])c3ccccc3)cc2[nH]1 (stereo not shown) [oxfendazole], the “Motility Reduction (%)” value ([1]; 1.25 x 10^-5 M, 24 h) was 10%, the “Motility Reduction (%)” value ([1]; 1.25 x 10^-5 M, 48 h) was 3% and the “Motility Reduction (%)” value ([1]; 1.25 x 10^-5 M, 72 h) was 23%. The “Motility Reduction (%)” value ([1]; 1.25 x 10^-5 M, 96 h) was 31%, the “Motility Reduction (%)” value ([1]; 1.25 x 10^-5 M, 120 h) was 40% and the “Motility Reduction (%)” value ([1]; 3.1 x 10^-6 M, 24 h) was 10%. For the same molecule, the “Motility Reduction (%)” value ([1]; 3.1 x 10^-6 M, 48 h) was 5%, the “Motility Reduction (%)” value ([1]; 3.1 x 10^-6 M, 72 h) was 33% and the “Motility Reduction (%)” value ([1]; 3.1 x 10^-6 M, 96 h) was 31%. The “Motility Reduction (%)” value ([1]; 3.1 x 10^-6 M, 120 h) was 40%, the “Motility Reduction (%)” value ([1]; 5.0 x 10^-5 M, 24 h) was 16% and the “Motility Reduction (%)” value ([1]; 5.0 x 10^-5 M, 48 h) was 9%. The “Motility Reduction (%)” value ([1]; 5.0 x 10^-5 M, 72 h) was 29%, the “Motility Reduction (%)” value ([1]; 5.0 x 10^-5 M, 96 h) was 33% and the “Motility Reduction (%)” value ([1]; 5.0 x 10^-5 M, 120 h) was 44%. For the same molecule, the “Motility Reduction (%)” value ([1]; 7.8 x 10^-7 M, 24 h) was 4%, the “Motility Reduction (%)” value ([1]; 7.8 x 10^-7 M, 48 h) was 5% and the “Motility Reduction (%)” value ([1]; 7.8 x 10^-7 M, 72 h) was 20%. The “Motility Reduction (%)” value ([1]; 7.8 x 10^-7 M, 96 h) was 31%, the “Motility Reduction (%)” value ([1]; 7.8 x 10^-7 M, 120 h) was 38% and the “MTT Reduction (%)” value ([2]; 1.25 x 10^-5 M) was 12%. For the same molecule, the “MTT Reduction (%)” value ([2]; 3.1 x 10^-6 M) was 17%, the “MTT Reduction (%)” value ([2]; 5.0 x 10^-5 M) was 11% and the “MTT Reduction (%)” value ([2]; 7.8 x 10^-7 M) was 7%. The microfilariae motility decrease ([3]; 1.25·10^−5 M) was 53%, the microfilariae motility decrease ([3]; 5·10^−5 M) was 67% and the “effect on microfilariae motility” value ([3]; concentrations lower than 1.25·10^−5 M) was “No effect”. For the same molecule, the minimal efficacious concentration ([4]; based on subcutaneous treatment at 25 mg/kg in mice, pharmacokinetic analysis) was “approximately 100 ng/ml”, the macrofilaricidal efficacy ([4]; mice, BID oral 2 x 5.0 mg/kg for 10 consecutive days) was “above 85%” and the macrofilaricidal efficacy ([4]; mice, BID oral 2 x 12.5 mg/kg for 5 days) was “above 85%”. For the same molecule, the median adult worms [4, 18] was 20 worms, the “range of adult worms” value [4, 18] was 1–47 worms and the “reduction of the adult worm burden” value [4, 18] was 0%. The median adult worms [4, 19] was 6.5 worms, the “range of adult worms” value [4, 19] was 1–16 worms and the “reduction of the adult worm burden” value [4, 19] was 23.5%. The median adult worms [4, 20] was 1 worm, the “range of adult worms” value [4, 20] was 0–4 worms and the “reduction of the adult worm burden” value [4, 20] was 87.2%. The “adult worm burden reduction” value [4, 21] was 16.7%, the median adult worms [4, 21] was 5 adult worms and the “range of adult worms” value [4, 21] was 1–12 worms. The “adult worm burden reduction” value [4, 22] was 100%, the median adult worms [4, 22] was 0 adult worms and the “range of adult worms” value [4, 22] was 0–5 worms. The adult worm reduction ([4]; mice, PO BID 2 x 12.5 mg/kg for 5 days from 35 dpi, necropsy 78 dpi) was 100%, the “adult worm burden reduction” value ([4]; mice, PO BID 2 x 25 mg/kg for 5 days from 35 dpi, necropsy 75 dpi) was 100% and the macrofilaricidal outcome ([4]; mice, SC 1 mg/kg QD for 5 days from 35 dpi, necropsy 78 dpi) was “no significant reduction of the worm burden”. For the same molecule, the macrofilaricidal outcome ([4]; mice, SC 5 mg/kg QD for 5 days from 35 dpi, necropsy 78 dpi) was “sterile cure was achieved in all mice except one”, the macrofilaricidal outcome ([4]; mice, SC 25 mg/kg QD for 5 days from 35 dpi, necropsy 78 dpi) was “Sterile cure was achieved” and the macrofilaricidal outcome ([4]; mice, single oral BID dosing, doses up to 125 mg/kg, start 33 dpi, 75 dpi) was “did not lead to a significant reduction”. For the same molecule, the clearance [5] was ~0.4 mL/min/kg, the Vd ([5]; Vol. of Distribution (Vss), Final) was ~0.5 L/kg and the CLhep predicted ([5]; hepatocytes) was 0.4 mL/min/kg. For the same molecule, the bioavailability ([5]; po) was 30%, the “Bioavailability (F)” value [6] was >50% and the “tolerability in healthy volunteers” value [7] was “acceptable side effects”. The “toxicity in mouse lymphoma assay” value [8] was “did not exhibit toxicity”, the “rat micronucleus assay outcome” value [9] was “confirmed the in vitro results” and the “inhibition of mammalian tubulin polymerization” value [10] was “poor inhibition”. The cardiovascular effects [11] was “did not raise safety concerns”, the dermal microfilariae numbers [12] was “no significant decrease in dermal microfilariae numbers” and the “Reduction of worm burden” value ([13]; 15Ad (IP), SC 50-25-12.5mg/kg 5 cons. days, 4 days p.i.) was 100%. The “Reduction of worm burden” value ([13]; 50L3 (IP), SC 25mg/kg 5 cons. days, 70 days p.i.) was 93.5%, the “Reduction of worm burden” value ([13]; 50L3 (IP), SC 50mg/kg 5 cons. days, 70 days p.i.) was 100% and the “Reduction of worm burden” value ([14]; SC 100mg/kg 5 cons. days) was 100%. For the same molecule, the “Reduction of worm burden” value ([14]; per os 150mg/kg 5 cons. days) was 0%, the “Reduction of worm burden” value ([15]; SC 100mg/kg 5 cons. days) was 0% and the “Reduction of worm burden” value ([15]; per os 150mg/kg 5 cons. days) was 33%. The “subacute toxicity, behavioral effects” value [16] was “did not raise safety concerns”, the “jirds with few microfilariae in the peripheral blood” value ([17]; 2 x 5 mg/kg BID PO 10 days) was “one jird out of four” and the “jirds with few microfilariae in the peripheral blood” value ([17]; 2 x 12.5 mg/kg BID PO 10 days) was “one jird out of five”. For the same molecule, the “embryogenesis in recovered female worms (embryogram)” value ([17]; jirds, 2 x 5 mg/kg BID PO 10 days, 16 weeks after treatment start) was “embryogenesis was inhibited”, the “animals with complete clearance of adult worms” value ([17]; jirds, PO BID 2 x 5 mg/kg for 10 days from 12 wpi, 16 weeks after treatment start) was “two animals out of four” and the “animals with complete clearance of adult worms” value ([17]; jirds, PO BID 2 x 12.5 mg/kg for 10 days from 12 wpi, 16 weeks after treatment start) was “four animals out of five”. For the same molecule, the “microfilariae cleared from the peripheral blood” value ([17]; jirds, both oxfendazole groups (2 x 12.5 and 2 x 5 mg/kg BID PO 10 days), 3 weeks after treatment) was “more than 99%”.
